Reference: ChEMBL document CHEMBL1201862, “PubChem BioAssay data set” (2004)
Structures can show the parent of a compound that is named as a salt.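 How tested: cells in 96-well plates exposed to compound for 48 hours at five concentrations. GI50 marks 50% less growth.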 Activity calls are given as the source filed them. Rule as the data show it: active = GI50 up to about 1.1 µM and inactive = higher.

What was measured:
Test in all cases: NCI anticancer screen, dose series, 48 h
[1] = test system: NCI-H23
[2] = test system: EKVX
[3] = test system: MCF7
[4] = test system: HCT-15
[5] = test system: T47D
[6] = test system: A549
[7] = test system: HCC 2998
[8] = test system: IGROV-1
[9] = test system: OVCAR-4
[10] = test system: SN12C
[11] = test system: OVCAR-5
[12] = test system: SK-MEL-28
[13] = test system: COLO 205
[14] = test system: A498
[15] = test system: TK-10
[16] = test system: SF-268
[17] = test system: DU-145
[18] = test system: HL-60
[19] = test system: KM12
[20] = test system: UACC-62

Compound	GI50 [1]	GI50 [2]	GI50 [3]	GI50 [4] [µM]	GI50 [5]	GI50 [6]	GI50 [7]	GI50 [8]	GI50 [9]	GI50 [10]	GI50 [11]	GI50 [12]	GI50 [13]	GI50 [14]	GI50 [15]	GI50 [16]	GI50 [17]	GI50 [18]	GI50 [19]	GI50 [20]
CCOC(=O)C(NC(C)=O)(Nc1ccc(S(N)(=O)=O)cc1)C(F)(F)F (stereo not given)	> 100 µM (inactive)	> 100 µM (inactive)	> 100 µM (inactive)	> 100	> 100 µM (inactive)	> 100 µM (inactive)	> 100 µM (inactive)	> 100 µM (inactive)	> 100 µM (inactive)	> 100 µM (inactive)	> 100 µM (inactive)	> 100 µM (inactive)	> 100 µM (inactive)	> 100 µM (inactive)	> 100 µM (inactive)	> 100 µM (inactive)	> 100 µM (inactive)	> 100 µM (inactive)	3.58 µM (inactive)	
C[C@]12CCC3c4ccc(O)cc4CC[C@H]3C1CC(=O)NC2=O (stereo not given in full)	> 10 µM (inactive)		> 10 µM (inactive)	> 10	> 10 µM (inactive)	> 10 µM (inactive)	> 10 µM (inactive)	> 10 µM (inactive)	> 10 µM (inactive)	> 10 µM (inactive)	> 10 µM (inactive)	> 10 µM (inactive)	> 10 µM (inactive)	> 10 µM (inactive)	> 10 µM (inactive)	> 10 µM (inactive)	> 10 µM (inactive)	> 10 µM (inactive)	> 10 µM (inactive)	
C=C(C)C1CCC(C(=O)O)CC1 (stereo not given)	> 100 µM (inactive)	> 100 µM (inactive)	> 100 µM (inactive)	> 100	> 100 µM (inactive)	> 100 µM (inactive)	> 100 µM (inactive)	> 100 µM (inactive)		> 100 µM (inactive)	> 100 µM (inactive)	> 100 µM (inactive)	> 100 µM (inactive)	> 100 µM (inactive)	> 100 µM (inactive)	> 100 µM (inactive)	> 100 µM (inactive)		> 100 µM (inactive)	> 100 µM (inactive)
O=C(/C=C/c1ccccc1)NNC(=O)c1c(Cl)c(Cl)c(Cl)c(Cl)c1-c1nc2ccccc2[nH]1	23.2 µM (inactive)	17.6 µM (inactive)	24.2 µM (inactive)	24	18.4 µM (inactive)	0.0966 µM (active)	21.7 µM (inactive)	6.49 µM (inactive)	49.4 µM (inactive)	21.6 µM (inactive)	25 µM (inactive)	39.5 µM (inactive)	18 µM (inactive)	29.6 µM (inactive)		51.8 µM (inactive)	28.6 µM (inactive)	20.3 µM (inactive)		15.7 µM (inactive)
COC(=O)CCC1(CCC(=O)OC)CCCCCCC(CCC(=O)OC)(CCC(=O)OC)C(=O)C1=O	> 100 µM (inactive)	> 100 µM (inactive)	> 100 µM (inactive)	> 100	20.5 µM (inactive)	> 100 µM (inactive)	27.9 µM (inactive)	> 100 µM (inactive)		> 100 µM (inactive)	> 100 µM (inactive)	> 100 µM (inactive)	54 µM (inactive)	> 100 µM (inactive)	> 100 µM (inactive)	> 100 µM (inactive)	> 100 µM (inactive)		> 100 µM (inactive)	> 100 µM (inactive)
CCOC(=O)C1=[N+]([O-])OC2=C(O)CCCC21 (stereo not given)	> 100 µM (inactive)	> 100 µM (inactive)	> 100 µM (inactive)	> 100	> 100 µM (inactive)	> 100 µM (inactive)	> 100 µM (inactive)	> 100 µM (inactive)	> 100 µM (inactive)	> 100 µM (inactive)	> 100 µM (inactive)	> 100 µM (inactive)	> 100 µM (inactive)	> 100 µM (inactive)	> 100 µM (inactive)	> 100 µM (inactive)	> 100 µM (inactive)		> 100 µM (inactive)	> 100 µM (inactive)
C/C(=N\Nc1nc2ccccc2s1)c1cc2ccccc2cn1	3.21 µM (inactive)	3.34 µM (inactive)	0.27 µM (active)	0.424	0.378 µM (active)	3.66 µM (inactive)	7.76 µM (inactive)	1.61 µM (inactive)	1.75 µM (inactive)	4.29 µM (inactive)	4.38 µM (inactive)	6.3 µM (inactive)	1.52 µM (inactive)	10.9 µM (inactive)	3.94 µM (inactive)	7.43 µM (inactive)	3.85 µM (inactive)		4.89 µM (inactive)	3.51 µM (inactive)
O=[N+]([O-])c1ccc(N/N=C2/CC3=C2CCCCCCCCCC3)c([N+](=O)[O-])c1	> 100 µM (inactive)	> 100 µM (inactive)	> 100 µM (inactive)	> 100	> 100 µM (inactive)	> 100 µM (inactive)	> 100 µM (inactive)	> 100 µM (inactive)	> 100 µM (inactive)	> 100 µM (inactive)	> 100 µM (inactive)	> 100 µM (inactive)	> 100 µM (inactive)	88.9 µM (inactive)	94.4 µM (inactive)	> 100 µM (inactive)	> 100 µM (inactive)		> 100 µM (inactive)	> 100 µM (inactive)
CC1OCC2OC(C)OC(C3C4=C(CC(C)(C)CC4=O)OC4=C3C(=O)CC(C)(C)C4)C2O1 (stereo not given)	> 100 µM (inactive)	> 100 µM (inactive)	> 100 µM (inactive)	> 100	> 100 µM (inactive)	> 100 µM (inactive)	> 100 µM (inactive)			> 100 µM (inactive)	> 100 µM (inactive)	> 100 µM (inactive)	> 100 µM (inactive)	> 100 µM (inactive)	> 100 µM (inactive)	> 100 µM (inactive)	> 100 µM (inactive)	> 100 µM (inactive)	> 100 µM (inactive)	> 100 µM (inactive)
C#C[C@]1(O)CC[C@H]2[C@@H]3CCC4=C/C(=N/OCCN(C)C)CC[C@]4(C)[C@H]3CC[C@@]21C	36.1 µM (inactive)	32.3 µM (inactive)	25.1 µM (inactive)	36.1	> 100 µM (inactive)	31.7 µM (inactive)	41 µM (inactive)	50.7 µM (inactive)	> 100 µM (inactive)	44.3 µM (inactive)	56.8 µM (inactive)	51.5 µM (inactive)	26.7 µM (inactive)	41.4 µM (inactive)	> 100 µM (inactive)	49.5 µM (inactive)	22.3 µM (inactive)		52 µM (inactive)	32.5 µM (inactive)
CC(=O)C(C(C)=O)[C@H]1OC(C)(C)O[C@H]1[C@H]1COC(C)(C)O1	30.8 µM (inactive)	50.6 µM (inactive)	35.6 µM (inactive)	29.6	89.1 µM (inactive)	42.6 µM (inactive)	26.5 µM (inactive)	53.5 µM (inactive)	40.6 µM (inactive)	29.6 µM (inactive)	> 100 µM (inactive)	97.3 µM (inactive)	17.7 µM (inactive)	> 100 µM (inactive)	> 100 µM (inactive)	63.8 µM (inactive)	42.1 µM (inactive)		35.7 µM (inactive)	43.2 µM (inactive)
CCCCOC(C)(C)/C=C/C(O)[C@](C)(O)[C@H]1[C@H](O)C[C@@]2(C)[C@@H]3CCc4c(cc(OC5OC(CO)C(O)C(O)C5O)c(O)c4C)C3(C)C(=O)C[C@]12C (stereo not given in full)	> 100 µM (inactive)	> 100 µM (inactive)	> 100 µM (inactive)	> 100	> 100 µM (inactive)	> 100 µM (inactive)	> 100 µM (inactive)	> 100 µM (inactive)	> 100 µM (inactive)	> 100 µM (inactive)	> 100 µM (inactive)	> 100 µM (inactive)	> 100 µM (inactive)	> 100 µM (inactive)	> 100 µM (inactive)	> 100 µM (inactive)	> 100 µM (inactive)		> 100 µM (inactive)	> 100 µM (inactive)
CON(C)C(=O)C(Cc1ccccc1)NC(=O)OC(C)(C)C (stereo not given)	> 100 µM (inactive)	> 100 µM (inactive)	> 100 µM (inactive)	> 100	> 100 µM (inactive)	> 100 µM (inactive)	> 100 µM (inactive)	> 100 µM (inactive)		> 100 µM (inactive)	> 100 µM (inactive)	> 100 µM (inactive)	> 100 µM (inactive)	> 100 µM (inactive)	> 100 µM (inactive)	> 100 µM (inactive)	> 100 µM (inactive)	> 100 µM (inactive)	> 100 µM (inactive)	> 100 µM (inactive)
CC1=CC2(C)C=C[C@@H]1C(=O)[C@@]1(C)CC[C@@](O)(C(C)C)[C@H]1CC2	19.1 µM (inactive)	24.4 µM (inactive)	28.4 µM (inactive)	24.2	25.8 µM (inactive)	34.6 µM (inactive)	17.5 µM (inactive)	26.2 µM (inactive)	17.8 µM (inactive)	20.9 µM (inactive)	17.9 µM (inactive)	20.9 µM (inactive)	20.7 µM (inactive)	28.6 µM (inactive)	36.6 µM (inactive)	23.8 µM (inactive)	28.9 µM (inactive)		20.3 µM (inactive)	20.1 µM (inactive)
CC(CN1c2ccccc2Sc2ccccc21)N(C)C (stereo not given) [PROMETHAZINE HYDROCHLORIDE]	21.8 µM (inactive)	22.6 µM (inactive)	25.8 µM (inactive)	17.5	21.5 µM (inactive)	20 µM (inactive)	20.1 µM (inactive)	20.1 µM (inactive)	16.4 µM (inactive)	15.3 µM (inactive)	18.2 µM (inactive)	17.8 µM (inactive)	14.1 µM (inactive)	19.6 µM (inactive)		17.5 µM (inactive)	19.4 µM (inactive)	22.7 µM (inactive)	20.8 µM (inactive)	19 µM (inactive)
